Source: US20040229791A1, “Compositions and methods of modulating TGF-beta activity by fatty acids” (priority 2002, published 2004)

Columns and labels:
[1] = target: T1, 125I-TGF-β1-α2M* complex (Homo sapiens, UniProt P01023); experiment: Dissociation of preformed 125I-TGF-β1-α2M* complex; format: binding; conditions: added after 30 min preincubation of complex
T1 construct: was purified from pooled citrate-treate human plasma; from tissue; host or cells: pooled citrate-treated human plasma
T1 sequence (P01023 24-1474): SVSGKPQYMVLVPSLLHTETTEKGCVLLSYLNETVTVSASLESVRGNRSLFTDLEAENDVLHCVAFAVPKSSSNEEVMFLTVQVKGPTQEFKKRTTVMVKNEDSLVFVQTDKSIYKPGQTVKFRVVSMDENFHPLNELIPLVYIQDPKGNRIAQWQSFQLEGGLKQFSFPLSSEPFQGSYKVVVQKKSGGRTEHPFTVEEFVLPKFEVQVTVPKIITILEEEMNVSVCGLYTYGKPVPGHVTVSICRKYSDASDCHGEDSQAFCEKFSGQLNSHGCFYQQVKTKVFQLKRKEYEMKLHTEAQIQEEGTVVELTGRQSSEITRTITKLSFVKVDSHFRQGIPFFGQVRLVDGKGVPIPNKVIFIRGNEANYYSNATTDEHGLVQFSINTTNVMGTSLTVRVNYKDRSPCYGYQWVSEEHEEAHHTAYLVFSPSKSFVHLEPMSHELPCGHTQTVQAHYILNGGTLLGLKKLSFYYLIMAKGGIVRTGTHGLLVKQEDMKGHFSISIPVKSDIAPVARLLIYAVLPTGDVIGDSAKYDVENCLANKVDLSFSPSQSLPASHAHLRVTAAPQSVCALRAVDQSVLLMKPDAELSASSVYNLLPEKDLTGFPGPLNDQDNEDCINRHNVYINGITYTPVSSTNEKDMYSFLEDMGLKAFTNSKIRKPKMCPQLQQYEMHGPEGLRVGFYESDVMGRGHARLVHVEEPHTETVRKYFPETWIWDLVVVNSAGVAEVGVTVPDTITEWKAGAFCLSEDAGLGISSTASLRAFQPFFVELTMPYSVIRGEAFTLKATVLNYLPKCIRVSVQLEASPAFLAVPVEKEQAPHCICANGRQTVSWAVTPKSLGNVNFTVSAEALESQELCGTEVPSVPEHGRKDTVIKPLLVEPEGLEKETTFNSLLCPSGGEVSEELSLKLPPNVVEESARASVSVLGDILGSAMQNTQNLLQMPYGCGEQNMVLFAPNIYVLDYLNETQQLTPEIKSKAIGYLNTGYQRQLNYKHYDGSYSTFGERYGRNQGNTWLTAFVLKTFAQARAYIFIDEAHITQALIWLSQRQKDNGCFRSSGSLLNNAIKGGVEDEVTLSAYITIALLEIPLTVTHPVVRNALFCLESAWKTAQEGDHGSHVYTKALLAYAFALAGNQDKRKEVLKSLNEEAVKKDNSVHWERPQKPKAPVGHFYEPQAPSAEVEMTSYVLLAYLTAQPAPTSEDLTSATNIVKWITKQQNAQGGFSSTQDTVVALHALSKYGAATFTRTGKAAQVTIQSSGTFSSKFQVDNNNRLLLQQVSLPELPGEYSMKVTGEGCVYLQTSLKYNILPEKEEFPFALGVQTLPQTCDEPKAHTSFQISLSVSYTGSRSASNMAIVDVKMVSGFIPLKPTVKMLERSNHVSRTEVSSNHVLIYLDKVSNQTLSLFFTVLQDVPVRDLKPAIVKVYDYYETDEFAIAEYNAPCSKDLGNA
Experimental: To determine whether fatty acids are capable of dissociating TGF- ? - ? 2M* complexes, various concentrations of arachidonic acid were added to a reaction mixture containing ^125I-TGF- ? 1 or ^125I-TGF ? β3 and α2M* which had been preincubated at room temperature for 30 mi 30 minutes at room temperature, the ^125I-TGF ? β isoform-α2M* complexes in the reaction mixtures were analyzed by 5% non-denaturing PAGE. […] However, lower concentrations of arachidonic acid were effective in inhibiting complex formation of ^125I-TGF- ? 1 and α2M* than were required to dissociate the ^125I-TGF- ? 1- ? 2M* complex.

[2] = system: p3TP-Lux in transfected Mv1Lu cells; experiment: Luciferase assay, p3TP-Lux TGF-β-responsive promoter construct; format: cell-based, mink; conditions: for reversal of α2M* inhibition of TGF-β2-induced luciferase activity: 200 μg/ml α2M*
Experimental: One of the prominent biological activities of TGF- ? is transcriptional activation of plasminogen activator inhibitor-1 (PAI-1) and fibronectin (1-4). The effect of fatty acids on the inhibition by. α2M* of a TGF- ? -responsive promoter construct p3TP-Lux was determined in transfected Mv1Lu cells. The p3TP-Lux contains the PAI-1 promoter and 3 repeats of a phorbol-12-myristate-13-acetate (TPA)-responsive element (29).
Luciferase Assay—Mv1Lu cells which had been plated on 12-well clustered dishes at a cell density of approximately 0.8-1.0×10^5 cells/plate were transfected with 4-6 μg of p3TP-Lux using the calcium phosphate method (24). After 12 hr, the transfected cells were washed with phosphate buffered saline and allowed to grow in a medium containing 10% fetal calf serum for 12 hr. The medium was changed to DMEM with low serum concentration (0.2% fetal calf serum) and the cells were incubated for 4-6 hr. The cells were then treated for 20 hr with TGF-.β2 (0, 50 or 100 pM), α2M* (0 or 200 μg/ml) and arachidonic acid (0, 12.5 or 25 μM) in the same low-serum medium. The cells were harvested and assayed for luciferase activity using the Promega kit according to the manufacturer's protocol. The luciferase activity was assayed in triplicate cell cultures and measured as arbitrary units (A.U.).

CCCCC/C=C\C/C=C\C/C=C\C/C=C\CCCC(=O)O [arachidonic acid]
dissociation of the 125I-TGF-β1-α2M* complex [1]: able to dissociate
reversal of α2M* inhibition of TGF-β2-induced luciferase activity ([2]; 12.5 μM arachidonic acid): completely reversed
reversal of α2M* inhibition of TGF-β2-induced luciferase activity ([2]; 25 μM arachidonic acid): completely reversed
effect on luciferase activity in cells treated with and without TGF-β2 in the absence of α2M* ([2]; 12.5 and 25 μM, absence of α2M*): did not influence the luciferase activity
